In PubChem BioAssay AID1963444 (Molecular Pharmacology Branch, DTP, NCI, 2024):

Test system: HSSY-II complex spheroid growth, percent test/control
Test: Anticancer human tumor HSSY-II cell line growth inhibition [Asc];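 note: spheroids exposed to drug for 7 days before reading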
Conditions: for IC50: curve of first compound; for viability, T/C: stronger effect = lower value
Method in brief: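 Complex solid-tumor spheroids incorporating human endothelial and mesenchymal stem cells received single agents or combinations over half-log dilution ranges anchored to clinical Cmax.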

[1] = second compound 0.01 µM, first compound 0.0316 µM
[2] = second compound 0.01 µM, first compound 0.1 µM
[3] = second compound 0.01 µM, first compound 0.316 µM
[4] = second compound 0.01 µM, first compound 1 µM
[5] = second compound 0.0316 µM, first compound 0.0316 µM
[6] = second compound 0.0316 µM, first compound 0.1 µM
[7] = second compound 0.0316 µM, first compound 0.316 µM
[8] = second compound 0.0316 µM, first compound 1 µM
[9] = second compound 0.1 µM, first compound 0.0316 µM
[10] = second compound 0.1 µM, first compound 0.1 µM
[11] = second compound 0.1 µM, first compound 0.316 µM
[12] = second compound 0.1 µM, first compound 1 µM
[13] = second compound 0.316 µM, first compound 0.0316 µM
[14] = second compound 0.316 µM, first compound 0.1 µM
[15] = second compound 0.316 µM, first compound 0.316 µM
[16] = second compound 0.316 µM, first compound 1 µM
[17] = second compound 1 µM, first compound 0.0316 µM
[18] = second compound 1 µM, first compound 0.1 µM
[19] = second compound 1 µM, first compound 0.316 µM
[20] = second compound 1 µM, first compound 1 µM
[21] = second compound 0.01 µM, first compound 0.00316 µM
[22] = second compound 0.01 µM, first compound 0.01 µM
[23] = second compound 0.0316 µM, first compound 0.00316 µM
[24] = second compound 0.0316 µM, first compound 0.01 µM
[25] = second compound 0.1 µM, first compound 0.00316 µM
[26] = second compound 0.1 µM, first compound 0.01 µM
[27] = second compound 0.316 µM, first compound 0.00316 µM
[28] = second compound 0.316 µM, first compound 0.01 µM
[29] = second compound 1 µM, first compound 0.00316 µM
[30] = second compound 1 µM, first compound 0.01 µM

With `C=CC(=O)N1CCN(c2nc(=O)n(-c3c(C)ccnc3C(C)C)c3nc(-c4c(O)cccc4F)c(F)cc23)C(C)C1` (stereo not given) + CNC(C)C(=O)NC1CN(S(=O)(=O)c2cccc(S(=O)(=O)N3CCC4CCC(C(=O)NC(c5ccccc5)c5ccccc5)N4C(=O)C(NC(=O)C(C)NC)C3)c2)CCC2CCC(C(=O)NC(c3ccccc3)c3ccccc3)N2C1=O the IC50 (second compound 0.01 µM) was 7990 nM, the IC50 (second compound 0.0316 µM) was 5850 nM and the IC50 (second compound 0.1 µM) was 5980 nM. It also gave an IC50 (second compound 0.316 µM) of 7420 nM, an IC50 (second compound 1 µM) of 6390 nM and a viability, T/C [1] of 97.5%. It also gave a viability, T/C [2] of 108%, a viability, T/C [3] of 107% and a viability, T/C [4] of 101%. For the same compound, the viability, T/C (second compound 0.01 µM, first compound 3.16 µM) was 94.3%, the viability, T/C (second compound 0.01 µM, first compound 10 µM) was 39.1% and the viability, T/C [5] was 92.9%. It also gave a viability, T/C [6] of 104%, a viability, T/C [7] of 91.7% and a viability, T/C [8] of 89.8%. The viability, T/C (second compound 0.0316 µM, first compound 3.16 µM) was 72%, the viability, T/C (second compound 0.0316 µM, first compound 10 µM) was 30.9% and the viability, T/C [9] was 86.9%. For the same compound, the viability, T/C [10] was 91.8%, the viability, T/C [11] was 90.6% and the viability, T/C [12] was 87.5%. For the same compound, the viability, T/C (second compound 0.1 µM, first compound 3.16 µM) was 68.4%, the viability, T/C (second compound 0.1 µM, first compound 10 µM) was 35.1% and the viability, T/C [13] was 89.5%. The viability, T/C [14] was 98.9%, the viability, T/C [15] was 101% and the viability, T/C [16] was 92.2%. For the same compound, the viability, T/C (second compound 0.316 µM, first compound 3.16 µM) was 89.1%, the viability, T/C (second compound 0.316 µM, first compound 10 µM) was 36.2% and the viability, T/C [17] was 82.7%. For the same compound, the viability, T/C [18] was 87.6%, the viability, T/C [19] was 88.5% and the viability, T/C [20] was 73.5%. The viability, T/C (second compound 1 µM, first compound 3.16 µM) was 89% and the viability, T/C (second compound 1 µM, first compound 10 µM) was 28.1%.
`COc1c(OCCCN2CCOCC2)ccc2c3n(c(=NC(=O)c4cnc(N)nc4)nc12)CCN3` + CNC(C)C(=O)NC1CN(S(=O)(=O)c2cccc(S(=O)(=O)N3CCC4CCC(C(=O)NC(c5ccccc5)c5ccccc5)N4C(=O)C(NC(=O)C(C)NC)C3)c2)CCC2CCC(C(=O)NC(c3ccccc3)c3ccccc3)N2C1=O showed an IC50 (second compound 0.01 µM) of 44 nM, an IC50 (second compound 0.0316 µM) of 45.1 nM and an IC50 (second compound 0.1 µM) of 34.9 nM. For the same compound, the IC50 (second compound 0.316 µM) was 45.9 nM, the IC50 (second compound 1 µM) was 54 nM and the viability, T/C [21] was 84.3%. The viability, T/C [22] was 79.6%, the viability, T/C [1] was 51.4% and the viability, T/C [2] was 36.8%. The viability, T/C [3] was 22.4%, the viability, T/C [4] was 12% and the viability, T/C [23] was 82%. It also gave a viability, T/C [24] of 77.5%, a viability, T/C [5] of 54.8% and a viability, T/C [6] of 34.3%. For the same compound, the viability, T/C [7] was 21.8%, the viability, T/C [8] was 9.94% and the viability, T/C [25] was 81.2%. It also gave a viability, T/C [26] of 64.9%, a viability, T/C [9] of 49% and a viability, T/C [10] of 38.8%. The viability, T/C [11] was 24.7%, the viability, T/C [12] was 10.4% and the viability, T/C [27] was 86.4%. For the same compound, the viability, T/C [28] was 80.1%, the viability, T/C [13] was 53.8% and the viability, T/C [14] was 34.5%. The viability, T/C [15] was 24.2%, the viability, T/C [16] was 8.5% and the viability, T/C [29] was 80.1%. For the same compound, the viability, T/C [30] was 73.8%, the viability, T/C [17] was 63.2% and the viability, T/C [18] was 33.7%. The viability, T/C [19] was 24.7% and the viability, T/C [20] was 9.52%.
For `NC(=O)C(=Cn1cnc(-c2cc(C(F)(F)F)cc(C(F)(F)F)c2)n1)c1cncnc1` + CNC(C)C(=O)NC1CN(S(=O)(=O)c2cccc(S(=O)(=O)N3CCC4CCC(C(=O)NC(c5ccccc5)c5ccccc5)N4C(=O)C(NC(=O)C(C)NC)C3)c2)CCC2CCC(C(=O)NC(c3ccccc3)c3ccccc3)N2C1=O, the IC50 (second compound 0.01 µM) was 10.6 nM, the IC50 (second compound 0.0316 µM) was 14.3 nM and the IC50 (second compound 0.1 µM) was 12.9 nM. For the same compound, the IC50 (second compound 0.316 µM) was 11.1 nM, the IC50 (second compound 1 µM) was 12.7 nM and the viability, T/C (second compound 0.01 µM, first compound 0.000949 µM) was 93.6%. The viability, T/C (second compound 0.01 µM, first compound 0.003 µM) was 78.1%, the viability, T/C (second compound 0.01 µM, first compound 0.00949 µM) was 53.5% and the viability, T/C (second compound 0.01 µM, first compound 0.03 µM) was 23.7%. The viability, T/C (second compound 0.01 µM, first compound 0.0949 µM) was 11.5%, the viability, T/C (second compound 0.01 µM, first compound 0.3 µM) was 0.44% and the viability, T/C (second compound 0.0316 µM, first compound 0.000949 µM) was 77.6%. For the same compound, the viability, T/C (second compound 0.0316 µM, first compound 0.003 µM) was 79.4%, the viability, T/C (second compound 0.0316 µM, first compound 0.00949 µM) was 57.8% and the viability, T/C (second compound 0.0316 µM, first compound 0.03 µM) was 32.5%. For the same compound, the viability, T/C (second compound 0.0316 µM, first compound 0.0949 µM) was 9.75%, the viability, T/C (second compound 0.0316 µM, first compound 0.3 µM) was 0.64% and the viability, T/C (second compound 0.1 µM, first compound 0.000949 µM) was 76.4%. The viability, T/C (second compound 0.1 µM, first compound 0.003 µM) was 68.2%, the viability, T/C (second compound 0.1 µM, first compound 0.00949 µM) was 58.9% and the viability, T/C (second compound 0.1 µM, first compound 0.03 µM) was 28.8%. For the same compound, the viability, T/C (second compound 0.1 µM, first compound 0.0949 µM) was 7.63%, the viability, T/C (second compound 0.1 µM, first compound 0.3 µM) was 0.48% and the viability, T/C (second compound 0.316 µM, first compound 0.000949 µM) was 91.1%. For the same compound, the viability, T/C (second compound 0.316 µM, first compound 0.003 µM) was 73.5%, the viability, T/C (second compound 0.316 µM, first compound 0.00949 µM) was 55.1% and the viability, T/C (second compound 0.316 µM, first compound 0.03 µM) was 29.3%. The viability, T/C (second compound 0.316 µM, first compound 0.0949 µM) was 6.77%, the viability, T/C (second compound 0.316 µM, first compound 0.3 µM) was 0.44% and the viability, T/C (second compound 1 µM, first compound 0.000949 µM) was 88.1%. For the same compound, the viability, T/C (second compound 1 µM, first compound 0.003 µM) was 79.8%, the viability, T/C (second compound 1 µM, first compound 0.00949 µM) was 56.3% and the viability, T/C (second compound 1 µM, first compound 0.03 µM) was 29.9%. The viability, T/C (second compound 1 µM, first compound 0.0949 µM) was 5.98% and the viability, T/C (second compound 1 µM, first compound 0.3 µM) was 0.56%.
Compound `NC1CCC(NC2CC2c2ccccc2)CC1` (stereo not given) + CNC(C)C(=O)NC1CN(S(=O)(=O)c2cccc(S(=O)(=O)N3CCC4CCC(C(=O)NC(c5ccccc5)c5ccccc5)N4C(=O)C(NC(=O)C(C)NC)C3)c2)CCC2CCC(C(=O)NC(c3ccccc3)c3ccccc3)N2C1=O has an IC50 (second compound 0.01 µM) greater than 100 nM, an IC50 (second compound 0.0316 µM) of less than 0.316 nM and an IC50 (second compound 0.1 µM) of 0.67 nM. For the same compound, the IC50 (second compound 0.316 µM) was less than 0.316 nM, the IC50 (second compound 1 µM) was less than 0.316 nM and the viability, T/C (second compound 0.01 µM, first compound 0.000316 µM) was 59.5%. It also gave a viability, T/C (second compound 0.01 µM, first compound 0.001 µM) of 59.1%, a viability, T/C [21] of 48.6% and a viability, T/C [22] of 54.9%. It also gave a viability, T/C [1] of 56.4%, a viability, T/C [2] of 52.1% and a viability, T/C (second compound 0.0316 µM, first compound 0.000316 µM) of 43.9%. The viability, T/C (second compound 0.0316 µM, first compound 0.001 µM) was 43.3%, the viability, T/C [23] was 46.4% and the viability, T/C [24] was 49.3%. It also gave a viability, T/C [5] of 45.5%, a viability, T/C [6] of 48.7% and a viability, T/C (second compound 0.1 µM, first compound 0.000316 µM) of 56.2%. For the same compound, the viability, T/C (second compound 0.1 µM, first compound 0.001 µM) was 46.3%, the viability, T/C [25] was 48.4% and the viability, T/C [26] was 49.2%. It also gave a viability, T/C [9] of 39%, a viability, T/C [10] of 49.9% and a viability, T/C (second compound 0.316 µM, first compound 0.000316 µM) of 51.2%. The viability, T/C (second compound 0.316 µM, first compound 0.001 µM) was 44.2%, the viability, T/C [27] was 49.4% and the viability, T/C [28] was 43.4%. It also gave a viability, T/C [13] of 47.1%, a viability, T/C [14] of 47.6% and a viability, T/C (second compound 1 µM, first compound 0.000316 µM) of 38.7%. For the same compound, the viability, T/C (second compound 1 µM, first compound 0.001 µM) was 47.1%, the viability, T/C [29] was 51.8% and the viability, T/C [30] was 41.2%. The viability, T/C [17] was 46.6% and the viability, T/C [18] was 52.7%.
